In one data set the target is T1, human C3b (Homo sapiens, UniProt P01024).
T1 construct: purchased Complement Technology, Inc., Tyler, TX
In words: SPR binding affinity and kinetic profile with immobilized C3b. The settings on record: 25 °C; for kd, dissociation constant: 1:1 Langmuir model; for Kd: KD=kd/ka, read-out: KD, equilibrium dissociation constant. (In general: Surface plasmon resonance follows binding to a sensor surface in real time, without labels.)

Data set [1] relates to complement classical pathway. In words: Classical pathway activation (C3b deposition) ELISA in human plasma with or without rabbit vitreous. The settings on record: in the absence of vitreous. The class given is biochemical. The method, then:
An alternative explanation to the one presented above is that the vitreous contains additional unidentified factors that associate with the Cp40-KKK analog. To investigate whether an unidentified vitreous factor impacts the complement inhibitory activity of lysine containing compounds, complement activation assays were performed using vitreous samples. Briefly, human plasma was incubated with OVA-anti-OVA immune-complexes in the presence of serial dilutions of the Cp40-based analogs mixed with rabbit vitreous. Levels of classical pathway activation (C3b deposition) were determined by ELISA using a polyclonal anti-human C3 antibody conjugated with HRP (MP Biomedicals, Solon, OH) (FIG. 20).
In general terms: ELISA stands for enzyme-linked immunosorbent assay.

Data set [2] relates to classical pathway of complement. The data set is described as follows: Classical pathway complement inhibition ELISA (C3b deposition) in normal human plasma. As to conditions: human plasma diluted 1:40; mean of at least three experiments. The class given is biochemical. How it is done:
For this purpose, microtiter wells (NUNC) were coated with 50 μl of 1% ovalbumin in PBS (pH 7.4) at ambient temperature for 2 h. The wells were blocked with 200 μl of 1% BSA in PBS for 1 h, then coated with 50 μl of 1:1000 α-ovalbumin polyclonal antibody in PBS for 1 h. Between each step, the plate was washed thrice with 200 μl of 0.05% Tween 20 in PBS (PBS-T); 30 μl of VBS (Veronal buffer 1×; 5 mM veronal, pH 7.4, containing 150 mM NaCl, 0.5 mM CaCl2 and 0.5 mM MgCl2) were placed in all but the first well of each row of the 96-well plate, and 5 μM peptide solutions in VBS were prepared. […] Human plasma diluted 1:40 in VBS was incubated for 15 min with peptide of 0.005 to 2.5 μM. After washing with PBS-T, 50 μl/well of 1:1000 goat a-human C3 HRP conjugated antibody in 1% BSA in PBS was added to the wells and incubated for 1 h at room temperature. Complement fixation indicating activation was detected by the addition of HRP substrate (0.05% ABTS and 0.1% of 30% aqueous H2O2 in 0.1 M sodium citrate, pH 4.2) and read at 405 nm. The absorbance data obtained at 405 nm were translated into % inhibition, considering 100% to be equal to complement activation in the absence of peptide. The percent inhibition was plotted against the logarithm of concentrations, and the resulting data set was fitted to the equation “log(inhibitor) vs. normalized response” using GraphPad Prism 5 (La Jolla, CA). IC50 values were obtained from the fitted parameters of the mean of at least three independent experiments. Cp40 was always used as the internal control.

Data set [3] in a line: Residence time in the vitreous after single intravitreal injection (WES and SPR competition assay). Type of data set: in vivo, cynomolgus monkeys. How it is done:
To determine the residence time of mPEG(3 k)-Cp40, mPEG(1 k)-Cp40, Cp40-KK, and Cp40-KKK in the vitreous of cynomolgus macaques, these Cp40-based analogs were administered intravitreally (i.v.t.) to the animals after induction of light ketamine anesthesia (10-15 mg/kg, by intramuscular injection (i.m.)) and dilation of the pupils with tropicamide/phenylephrine ophthalmic solution (see Table 6 for study design).
For i.v.t. injection, the cynomolgus monkeys were anesthetized with a combination of ketamine (15-25 mg/kg, i.m.) and xylazine (2 mg/kg, i.m.) and the eye was cleaned with povidone-iodine solution. After application of oxybuprocaine hydrochloride solution (Benoxil® ophthalmic solution 0.4%) to the cornea as a local anesthetic, the Cp40-based analogs were administered to the animals by i.v.t. injection into either the right (G1, G3) or left (G2, G4) eye of each animal. Immediately following each injection, a single topical dose of 0.5% levofloxacin was administered. After i.v.t. injection of mPEG(3 k)-Cp40, mPEG(1 k)-Cp40, Cp40-KK, and Cp40-KKK, vitreous fluid samples (about 50 μL each) were withdrawn from Cp40-based analog-treated eyes on days 14, 28, 42, (G1, G2, G3, G4), 56, 73, 90 (G1, G2) (this was done either three times or six times). Samples were collected on ice and stored in a deep freezer (˜79.3 to −68.5° C.) until further analysis. […] Presence and concentration of the Cp40-based analogs was determined using either the simple western technology (WES, ProteinSimple, San Jose, CA), or surface plasmon resonance (SPR)-based real-time measurement of binding kinetics on a Cp40-KKK immobilized chip (see detailed methods below). Similar results with regard to the intravitreal residence time and concentration levels of the test compounds were obtained regardless of the quantification method selected.
To quantify the levels of all test compounds in vitreous samples collected at different time points following i.v.t. injection (see FIG. 15), WES analysis was performed on a WES instrument (ProteinSimple, San Jose, CA) using a 2 to 40 kDa Separation Module and Anti-Rabbit Detection Module according to the manufacturers' instructions. […] The resulting electropherograms were evaluated using the Compass software (ProteinSimple, San Jose, CA). The following criteria were used to discriminate low peptide signals from background: The peak signal-to-noise (S/N) ratio given by the software must be ≥10, and the peak height/baseline ratio (calculated manually from the peak height and baseline values given by the software) must be equal to or greater than 3. […] Shown in FIG. 15 is a representative standard curve generated using the WES system and bands obtained upon running pre-determined amounts of purified peptide spiked into rabbit vitreous samples. […]

A short description of data set [4]: Pharmacokinetics after single i.v. injection. Type of data set: in vivo, cynomolgus monkeys. How it is done: FIG. 11 show graphs of peptide concentration over time in cynomolgus monkeys to which was administered a single 2 mg/kg intravenous injection of Cp40-KK (panel a), Cp40-KKK (panel b), mPEG(1 k)-Cp40 (panel c), and mPEG(3 k)-Cp40 (panel d). […]
In vivo pharmacokinetic studies were conducted, in which cynomolgus monkeys were administered single i.v. injections of mPEG(1 k)-Cp40, mPEG(3 k)-Cp40, Cp40-KK, or Cp40-KKK.

Data set [5] can be described thus: Pharmacokinetics in NHP plasma after single s.c. injection, with plasma C3 levels.
For data set [6] the following is noted: at the stated concentration; indicator paper.
Another data set concerns the target C3. The settings on record: Qu et al. (2013); cited from earlier work.

Values joined by “and” are separate entries in the source; they are usually repeats but may differ in a detail not shown here. Equal values may be shown once. “Also recorded” adds a separate entry of the source.

The values that follow come from US11884747B2, “Compstatin analogs with increased solubility and improved pharmacokinetic properties” (The Trustees of the University of Pennsylvania, priority 2018, dated 2024).

In general, Kd refers to a measure of binding affinity in units of concentration. As usually defined, the IC50 is the concentration needed to halve the response being measured.

T1 sequence (P01024 23-667 limits assumed): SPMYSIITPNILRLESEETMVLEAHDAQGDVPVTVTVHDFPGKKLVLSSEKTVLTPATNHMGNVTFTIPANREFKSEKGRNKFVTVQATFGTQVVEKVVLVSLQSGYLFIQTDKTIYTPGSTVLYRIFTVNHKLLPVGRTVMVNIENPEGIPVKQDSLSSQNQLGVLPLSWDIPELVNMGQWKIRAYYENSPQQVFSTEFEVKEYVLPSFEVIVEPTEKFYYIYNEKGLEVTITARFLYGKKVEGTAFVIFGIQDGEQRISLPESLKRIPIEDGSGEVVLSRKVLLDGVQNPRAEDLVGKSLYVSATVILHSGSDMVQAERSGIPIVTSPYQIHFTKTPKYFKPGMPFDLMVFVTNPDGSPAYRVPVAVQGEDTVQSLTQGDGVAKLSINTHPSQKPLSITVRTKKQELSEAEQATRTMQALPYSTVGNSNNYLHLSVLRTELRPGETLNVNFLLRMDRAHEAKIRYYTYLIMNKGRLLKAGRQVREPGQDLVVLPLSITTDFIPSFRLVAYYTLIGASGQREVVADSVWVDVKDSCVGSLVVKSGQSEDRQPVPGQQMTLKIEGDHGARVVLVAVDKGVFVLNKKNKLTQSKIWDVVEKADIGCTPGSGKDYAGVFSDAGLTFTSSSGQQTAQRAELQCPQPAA
T1 sequence (P01024 749-1663 partner limits assumed): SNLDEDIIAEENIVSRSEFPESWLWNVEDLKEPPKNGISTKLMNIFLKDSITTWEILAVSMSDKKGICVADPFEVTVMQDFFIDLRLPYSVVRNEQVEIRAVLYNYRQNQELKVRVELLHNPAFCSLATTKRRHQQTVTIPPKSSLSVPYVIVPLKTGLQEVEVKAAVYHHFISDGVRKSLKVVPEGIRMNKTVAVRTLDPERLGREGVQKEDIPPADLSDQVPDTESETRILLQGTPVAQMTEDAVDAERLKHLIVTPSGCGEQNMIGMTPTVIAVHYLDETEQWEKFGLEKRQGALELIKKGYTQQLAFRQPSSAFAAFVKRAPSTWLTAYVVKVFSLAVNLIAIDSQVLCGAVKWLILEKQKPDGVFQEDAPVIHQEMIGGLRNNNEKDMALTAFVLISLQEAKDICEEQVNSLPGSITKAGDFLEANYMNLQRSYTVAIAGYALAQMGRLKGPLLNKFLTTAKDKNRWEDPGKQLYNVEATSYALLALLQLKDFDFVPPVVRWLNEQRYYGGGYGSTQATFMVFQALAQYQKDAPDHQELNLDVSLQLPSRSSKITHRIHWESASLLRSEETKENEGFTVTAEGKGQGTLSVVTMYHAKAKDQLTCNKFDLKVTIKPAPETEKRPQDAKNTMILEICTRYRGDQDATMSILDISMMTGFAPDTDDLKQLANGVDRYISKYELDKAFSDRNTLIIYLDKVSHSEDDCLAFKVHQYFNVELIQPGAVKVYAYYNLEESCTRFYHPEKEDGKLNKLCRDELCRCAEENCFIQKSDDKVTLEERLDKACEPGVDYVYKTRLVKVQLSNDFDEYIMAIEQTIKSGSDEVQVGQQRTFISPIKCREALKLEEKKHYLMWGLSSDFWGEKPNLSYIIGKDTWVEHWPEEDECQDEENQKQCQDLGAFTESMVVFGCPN

For `CC[C@H](C)[C@H](NC(=O)[C@H](N)Cc1ccc(O)cc1)C(=O)N[C@H]1CSSC[C@@H](C(=O)N(C)[C@H](C(=O)N[C@@H](CCCCN)C(=O)N[C@@H](CCCCN)C(N)=O)[C@@H](C)CC)NC(=O)[C@H](CCCNC(=N)N)NC(=O)[C@H](Cc2c[nH]cn2)NC(=O)[C@H](C)NC(=O)CN(C)C(=O)[C@H](Cc2c[nH]c3ccccc23)NC(=O)[C@H](CC(=O)O)NC(=O)[C@H](CCC(N)=O)NC(=O)[C@H](Cc2cn(C)c3ccccc23)NC(=O)[C@H](C(C)C)NC1=O` [Cp40-KK, DTyr-Ile-[Cys-Val-Trp(Me)-Gln-Asp-Trp-Sar-Ala-His-Arg-Cys]-mIle-Lys-Lys—NH2], the “kd, dissociation constant” value at human C3b is listed as 1.52 ± 0.25 10^−3s^−1. The Kd at human C3b came out at 0.44 ± 0.17 nM. Further, the “complement classical pathway inhibitory activity” value in data set [1] is on record as “inhibitory activity in a dose-dependent manner”. Further, the IC50 in data set [2] is 61.8 ± 4.2 nM. Moreover, the “detection in vitreous over time” value in data set [3] (single i.v.t. 500 μg, days 14-90) is reported as “no longer detected on day 90”. The “in vivo Lys cleavage in plasma” value in data set [4] (after i.v. injection) is on record as “metabolized to minimal amounts of Cp40-K”; in data set [5] (after s.c. injection, UPLC-ESI-MS), “Cp40-K was also detected in the NHP plasma samples, beginning at 30 min after sc injection; also recorded: cleaved in vivo generating minimal amounts of Cp40-K”. The AUC(0-t) in data set [4] (cynomolgus monkey, plasma, iv, 2 mg/kg, single i.v. injection, read-out: AUC0-120h) was determined as 85.2 µM·h. Besides, the “C3 saturation time (peptide above plasma level of C3)” value in data set [5] (single s.c. 2 mg/kg) was in the range of 2.5 to 5 h. The “CL/F, apparent clearance” value in data set [5] (single s.c. 2 mg/kg, SUM for Lys analogs, 2 mg/kg) is 3348 ((mg/kg)/(μM · h) and 2648 ((mg/kg)/(μM · h). Further, the “pH of the peptide solution in PBS” value in data set [6] was 7-7.5.
With `CC[C@H](C)[C@H](NC(=O)[C@H](N)Cc1ccc(O)cc1)C(=O)N[C@H]1CSSC[C@@H](C(=O)N(C)[C@H](C(N)=O)[C@@H](C)CC)NC(=O)[C@H](CCCNC(=N)N)NC(=O)[C@H](Cc2c[nH]cn2)NC(=O)[C@H](C)NC(=O)CN(C)C(=O)[C@H](Cc2c[nH]c3ccccc23)NC(=O)[C@H](CC(=O)O)NC(=O)[C@H](CCC(N)=O)NC(=O)[C@H](Cc2cn(C)c3ccccc23)NC(=O)[C@H](C(C)C)NC1=O` [Cp40, DTyr-Ile-[Cys-Val-Trp(Me)-Gln-Asp-Trp-Sar-Ala-His-Arg-Cys]-mIle-NH2, reference compound], on human C3b, the “kd, dissociation constant” value is given as 1.84 ± 0.40 10^−3s^−1 and the Kd was 0.53 ± 0.14 nM. Besides, the “complement classical pathway inhibitory activity” value in data set [1] was “inhibitory activity in a dose-dependent manner”. Further, at C3, the “binding affinity for C3” value is reported as “subnanomolar” and the “binding affinity for C3 higher than that of the parent peptide” value was ~6,000 fold. This molecule also displayed an IC50 in data set [2] of 56.8 ± 3 nM. Besides, the detection in vitreous result in data set [3] (100 μg i.v.t.) is recorded as “no detection of any compound was observed after one month”. Also, the “C3 saturation time (peptide above plasma level of C3)” value in data set [5] (single s.c. 2 mg/kg, 2 mg/kg) was 4 to 5 h and ~4.5 h. Moreover, the “pH of the peptide solution in PBS” value in data set [6] is listed as 7.5.
